Data: patent US8952024B2, “Herbicidal pyrimidone derivatives” (E I du Pont de Nemours and Company, priority 2009, dated 2015)

How the values were obtained:
Type in all cases: in vivo
corn (Zea mays) = assay: Test B pre-/postemergence plant response
In short: (§1)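 Compound in solvent + surfactant applied pre-em (loam/sand) or post-em (plants 2–18 cm, peat medium); greenhouse hold 13–15 days; visual 0–100 control score.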

[1] = test system: cocklebur (Xanthium strumarium); assay: Test B pre-/postemergence plant response
In short: as §1

[2] = test system: green foxtail (Setaria viridis); assay: Test B pre-/postemergence plant response
In short: as §1

[3] = test system: johnsongrass (Sorghum halepense); assay: Test B pre-/postemergence plant response
In short: as §1

kochia (Kochia scoparia) = assay: Test B pre-/postemergence plant response
In short: as §1

[4] = test system: pigweed (Amaranthus retroflexus); assay: Test B pre-/postemergence plant response
In short: as §1

soybean (Glycine max) = assay: Test B pre-/postemergence plant response
In short: as §1

[5] = test system: giant foxtail (Setaria faberii); assay: Test B pre-/postemergence plant response
In short: as §1

[6] = test system: lambsquarters (Chenopodium album); assay: Test B pre-/postemergence plant response
In short: as §1

[7] = test system: ragweed (common ragweed, Ambrosia elatior); assay: Test B pre-/postemergence plant response
In short: as §1

[8] = test system: bermudagrass (Cynodon dactylon); assay: Test B pre-/postemergence plant response
In short: as §1

wild oat (Avena fatua) = assay: Test B pre-/postemergence plant response
In short: as §1

[9] = test system: ducksalad (Heteranthera limosa); assay: Test B flooded paddy test; conditions: for Plant response rating, Ducksalad: Flood (flooded paddy test), 13 to 15 days
In short: (§2)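 Seedlings reaching 2 leaves are flooded 3 cm deep; test material is delivered to that water, which stays at the same depth. Plants remain in a greenhouse 13–15 days and are then scored by eye versus controls from 0 to 100.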

[10] = test system: umbrella sedge (Cyperus difformis); assay: Test B flooded paddy test; conditions: for Plant response rating, Sedge, Umbrella: Flood (flooded paddy test), 13 to 15 days
In short: as §2

[11] = test system: barnyardgrass (Echinochloa crus-galli); assay: Test B flooded paddy test; conditions: for Plant response rating, Barnyardgrass: Flood (flooded paddy test), 13 to 15 days
In short: as §2

rice (Oryza sativa) = assay: Test B flooded paddy test; conditions: for Plant response rating, Rice: Flood (flooded paddy test), 13 to 15 days
In short: as §2

[12] = 31 g ai/ha, postemergence, scale 0 to 100, 0 is no effect, 100 is complete control
[13] = 62 g ai/ha, postemergence, 0 is no effect, 100 is complete control, 13 to 15 days
[14] = 250 g ai/ha, Preemergence, 0 to 100 scale
[15] = Postemergence, 125 g ai/ha, visual rating after 13 to 15 days, scale 0 (no effect) to 100 (complete control)
[16] = Postemergence, 250 g ai/ha, scale 0 to 100 (0 no effect, 100 complete control)
[17] = Preemergence, 31 g ai/ha, scale 0 to 100 (0 no effect, 100 complete control)
[18] = Preemergence, 62 g ai/ha, scale 0 to 100, 0 no effect, 100 complete control
[19] = Preemergence, 125 g ai/ha, scale 0 to 100, 0 no effect, 100 complete control
[20] = 250 g ai/ha, flooded paddy test, visual rating on 0 to 100 scale (0 no effect, 100 complete control) after 13 to 15 days
[21] = 62 g ai/ha, scale of 0 to 100 where 0 is no effect and 100 is complete control
[22] = 125 g ai/ha, scale 0 to 100, 0 is no effect, 100 is complete control
[23] = Flood, 31 g ai/ha, scale 0 to 100 (0 no effect, 100 complete control)

SMILES: CCCc1ncc(C(=O)C2=C(O)CCCC2=O)c(=O)n1CCC [Compound 72]
- Plant response rating, Corn (corn (Zea mays); [12]): 0
- Corn plant response rating (0 to 100 scale) (corn (Zea mays); [13]): 0
- Plant response rating, Corn (corn (Zea mays); [14]): 0
- Plant response rating, Corn (corn (Zea mays); [15]): 5
- Plant response rating, Corn (corn (Zea mays); [16]): 10
- Plant response rating, Corn (corn (Zea mays); [17]): 0
- Plant response rating, Corn (corn (Zea mays); [18]): 0
- Plant response rating, Corn (corn (Zea mays); [19]): 0
- Plant response rating, Cocklebur [1, 12]: 75
- Cocklebur plant response rating (0 to 100 scale) [1, 13]: 80
- Plant response rating, Cocklebur [1, 14]: 80
- Plant response rating, Cocklebur [1, 15]: 90
- Plant response rating, Cocklebur [1, 16]: 95
- Plant response rating, Cocklebur [1, 17]: 10
- Plant response rating, Cocklebur [1, 18]: 50
- Plant response rating, Cocklebur [1, 19]: 70
- Plant response rating, Foxtail, Green [2, 12]: 10
- Foxtail, Green plant response rating (0 to 100 scale) [2, 13]: 70
- Plant response rating, Foxtail, Green [2, 14]: 90
- Plant response rating, Foxtail, Green [2, 15]: 90
- Plant response rating, Foxtail, Green [2, 16]: 90
- Plant response rating, Foxtail, Green [2, 17]: 0
- Plant response rating, Foxtail, Green [2, 18]: 0
- Plant response rating, Foxtail, Green [2, 19]: 50
- Plant response rating, Johnsongrass [3, 12]: 0
- Johnsongrass plant response rating (0 to 100 scale) [3, 13]: 10
- Plant response rating, Johnsongrass [3, 14]: 10
- Plant response rating, Johnsongrass [3, 15]: 40
- Plant response rating, Johnsongrass [3, 16]: 45
- Plant response rating, Johnsongrass [3, 17]: 0
- Plant response rating, Johnsongrass [3, 18]: 0
- Plant response rating, Johnsongrass [3, 19]: 0
- Plant response rating, Kochia (kochia (Kochia scoparia); [12]): 75
- Kochia plant response rating (0 to 100 scale) (kochia (Kochia scoparia); [13]): 85
- Plant response rating, Kochia (kochia (Kochia scoparia); [14]): 85
- Plant response rating, Kochia (kochia (Kochia scoparia); [15]): 90
- Plant response rating, Kochia (kochia (Kochia scoparia); [16]): 90
- Plant response rating, Kochia (kochia (Kochia scoparia); [17]): 45
- Plant response rating, Kochia (kochia (Kochia scoparia); [18]): 75
- Plant response rating, Kochia (kochia (Kochia scoparia); [19]): 85
- Plant response rating, Pigweed [4, 12]: 80
- Pigweed plant response rating (0 to 100 scale) [4, 13]: 100
- Plant response rating, Pigweed [4, 15]: 100
- Plant response rating, Pigweed [4, 16]: 100
- Plant response rating, Pigweed [4, 17]: 98
- Plant response rating, Pigweed [4, 18]: 98
- Plant response rating, Pigweed [4, 19]: 100
- Plant response rating, Soybean (soybean (Glycine max); [12]): 80
- Soybean plant response rating (0 to 100 scale) (soybean (Glycine max); [13]): 80
- Plant response rating, Soybean (soybean (Glycine max); [15]): 85
- Plant response rating, Soybean (soybean (Glycine max); [16]): 95
- Plant response rating, Foxtail, Giant [5, 12]: 65
- Foxtail, Giant plant response rating (0 to 100 scale) [5, 13]: 70
- Plant response rating, Foxtail, Giant [5, 14]: 65
- Plant response rating, Foxtail, Giant [5, 15]: 75
- Plant response rating, Foxtail, Giant [5, 16]: 80
- Plant response rating, Foxtail, Giant [5, 17]: 0
- Plant response rating, Foxtail, Giant [5, 18]: 5
- Plant response rating, Foxtail, Giant [5, 19]: 10
- Plant response rating, Lambsquarters [6, 12]: 90
- Lambsquarters plant response rating (0 to 100 scale) [6, 13]: 100
- Plant response rating, Lambsquarters [6, 14]: 100
- Plant response rating, Lambsquarters [6, 15]: 100
- Plant response rating, Lambsquarters [6, 16]: 100
- Plant response rating, Lambsquarters [6, 17]: 98
- Plant response rating, Lambsquarters [6, 18]: 98
- Plant response rating, Lambsquarters [6, 19]: 98
- Plant response rating, Ragweed [7, 12]: 75
- Ragweed plant response rating (0 to 100 scale) [7, 13]: 80
- Plant response rating, Ragweed [7, 15]: 90
- Plant response rating, Ragweed [7, 16]: 95
- Plant response rating, Ragweed [7, 17]: 55
- Plant response rating, Ragweed [7, 18]: 70
- Plant response rating, Ragweed [7, 19]: 80
- Plant response rating, Bermudagrass [8, 12]: 75
- Bermudagrass plant response rating (0 to 100 scale) [8, 13]: 80
- Plant response rating, Bermudagrass [8, 14]: 100
- Plant response rating, Bermudagrass [8, 15]: 85
- Plant response rating, Bermudagrass [8, 16]: 85
- Plant response rating, Bermudagrass [8, 17]: 95
- Plant response rating, Bermudagrass [8, 18]: 98
- Plant response rating, Bermudagrass [8, 19]: 98
- Plant response rating, Oat, Wild (wild oat (Avena fatua); [12]): 0
- Plant response rating, Oat, Wild (wild oat (Avena fatua); [15]): 30
- Plant response rating, Oat, Wild (wild oat (Avena fatua); [16]): 40
- Plant response rating, Oat, Wild (wild oat (Avena fatua); [17]): 0
- Plant response rating, Oat, Wild (wild oat (Avena fatua); [18]): 0
- Plant response rating, Oat, Wild (wild oat (Avena fatua); [19]): 0
- Plant response rating, Flood, Ducksalad [9, 20]: 0
- Plant response rating, Ducksalad [9, 21]: 0
- Plant response rating, Ducksalad [9, 22]: 0
- Ducksalad plant response rating [9, 23]: 0
- Plant response rating, Flood, Sedge, Umbrella [10, 20]: 30
- Plant response rating, Sedge, Umbrella [10, 21]: 0
- Plant response rating, Sedge, Umbrella [10, 22]: 0
- Sedge, Umbrella plant response rating [10, 23]: 0
- Plant response rating, Flood, Barnyardgrass [11, 20]: 30
- Plant response rating, Barnyardgrass [11, 21]: 0
- Plant response rating, Barnyardgrass [11, 22]: 0
- Barnyardgrass plant response rating [11, 23]: 0
- Plant response rating, Flood, Rice (rice (Oryza sativa); [20]): 20
- Plant response rating, Rice (rice (Oryza sativa); [21]): 0
- Plant response rating, Rice (rice (Oryza sativa); [22]): 20
- Rice plant response rating (rice (Oryza sativa); [23]): 0
